# How the values were obtained:
# [1] = Body weight of mice swapped to a diet containing 20% KE; format: in vivo, C57/BL6 mice; conditions: diet containing 20% KE (by weight); n=5 female
# Excerpt: Male (n=10) and female (n=10) C57/BL6 mice were fed control diet for one week. The next week n=5 male and n=5 female mice were swapped to a diet containing 20% KE (by weight) mixed into a custom-made diet.
# [2] = Waking body weight with daily ketone ester consumption in a person with obesity; format: in vivo, human; conditions: for Weight (waking body weight): daily 25 g KE
# Description: This example describes the effect of daily ketone ester consumption in a person with obesity (BMI=42.5 kg/m^2). The subject began consuming one 25 g serving of KE each morning on Nov. 15, 2021, and maintained daily consumption each morning for 7 weeks. The KE was in a commercially available consumer-friendly beverage formulation (Juvenescence, NJ, USA). Body weight was recorded by the subject after waking each morning (see, e.g., Table 1 and FIG. 3). […] The highest body weight in this period was on Nov. 15, 2021 (288 lbs), and the lowest was on Day Dec. 21, 2021 (254 lbs), giving a total weight loss of 34 lbs (11.8% of starting body mass)
# [3] = 25 g KE each morning, highest to lowest body weight
structure (smiles),measurement,setting,value
"CCCCCC(=O)OCC[C@@H](C)OC(=O)CCCCC [KE, bis hexanoyl (R)-1,3-butanediol]",deaths,[1],Two female animals died due to rapid weight loss
same,lowest body weight in this period,"[2]; 25 g KE each morning, Dec. 21, 2021",254 lbs
same,highest body weight in this period,"[2]; 25 g KE each morning, Nov. 15, 2021",288 lbs
same,total weight loss,[2]; [3],34 lbs
same,"total weight loss, % of starting body mass",[2]; [3],11.8%
same,Weight (waking body weight),[2]; 1 Dec. 2021,272.5 lbs
same,Weight (waking body weight),[2]; 1 Jan. 2022,258 lbs
same,Weight (waking body weight),[2]; 2 Dec. 2021,272.5 lbs
same,Weight (waking body weight),[2]; 2 Jan. 2022,257 lbs
same,Weight (waking body weight),[2]; 3 Dec. 2021,272 lbs
same,Weight (waking body weight),[2]; 3 Jan. 2022,255.5 lbs
same,Weight (waking body weight),[2]; 4 Dec. 2021,271 lbs
same,Weight (waking body weight),[2]; 4 Jan. 2022,255.5 lbs
same,Weight (waking body weight),[2]; 5 Dec. 2021,270 lbs
same,Weight (waking body weight),[2]; 5 Jan. 2022,256 lbs
same,Weight (waking body weight),[2]; 6 Dec. 2021,268.5 lbs
same,Weight (waking body weight),[2]; 7 Dec. 2021,267.5 lbs
same,Weight (waking body weight),[2]; 8 Dec. 2021,267 lbs
same,Weight (waking body weight),[2]; 9 Dec. 2021,266 lbs
same,Weight (waking body weight),[2]; 10 Dec. 2021,265.5 lbs
same,Weight (waking body weight),[2]; 11 Dec. 2021,264.5 lbs
same,Weight (waking body weight),[2]; 12 Dec. 2021,264 lbs
same,Weight (waking body weight),[2]; 13 Dec. 2021,262.5 lbs
same,Weight (waking body weight),[2]; 14 Dec. 2021,261.5 lbs
same,Weight (waking body weight),[2]; 15 Dec. 2021,260.5 lbs
same,Weight (waking body weight),[2]; 15 Nov. 2021,288 lbs
same,Weight (waking body weight),[2]; 16 Dec. 2021,258 lbs
same,Weight (waking body weight),[2]; 16 Nov. 2021,286.5 lbs
same,Weight (waking body weight),[2]; 17 Dec. 2021,256 lbs
same,Weight (waking body weight),[2]; 17 Nov. 2021,284 lbs
same,Weight (waking body weight),[2]; 18 Dec. 2021,256 lbs
same,Weight (waking body weight),[2]; 18 Nov. 2021,283 lbs
same,Weight (waking body weight),[2]; 19 Dec. 2021,255 lbs
same,Weight (waking body weight),[2]; 19 Nov. 2021,283 lbs
same,Weight (waking body weight),[2]; 20 Dec. 2021,255 lbs
same,Weight (waking body weight),[2]; 20 Nov. 2021,282.5 lbs
same,Weight (waking body weight),[2]; 21 Dec. 2021,254 lbs
same,Weight (waking body weight),[2]; 21 Nov. 2021,281.5 lbs
same,Weight (waking body weight),[2]; 22 Dec. 2021,256 lbs
same,Weight (waking body weight),[2]; 22 Nov. 2021,279.5 lbs
same,Weight (waking body weight),[2]; 23 Dec. 2021,258 lbs
same,Weight (waking body weight),[2]; 23 Nov. 2021,279 lbs
same,Weight (waking body weight),[2]; 24 Dec. 2021,257 lbs
same,Weight (waking body weight),[2]; 24 Nov. 2021,278 lbs
same,Weight (waking body weight),[2]; 25 Dec. 2021,258 lbs
same,Weight (waking body weight),[2]; 25 Nov. 2021 (first line of this date),278 lbs
same,Weight (waking body weight),[2]; 25 Nov. 2021 (second line of this date),276.5 lbs
same,Weight (waking body weight),[2]; 26 Dec. 2021,260 lbs
same,Weight (waking body weight),[2]; 26 Nov. 2021,275 lbs
same,Weight (waking body weight),[2]; 27 Dec. 2021,258 lbs
same,Weight (waking body weight),[2]; 27 Nov. 2021,275 lbs
same,Weight (waking body weight),[2]; 28 Dec. 2021,257 lbs
same,Weight (waking body weight),[2]; 28 Nov. 2021,273.5 lbs
same,Weight (waking body weight),[2]; 29 Dec. 2021,258 lbs
same,Weight (waking body weight),[2]; 29 Nov. 2021,273 lbs
same,Weight (waking body weight),[2]; 30 Dec. 2021,260.5 lbs
same,Weight (waking body weight),[2]; 30 Nov. 2021,273 lbs
same,Weight (waking body weight),[2]; 31 Dec. 2021,260 lbs
